We go through 20 compounds from patent US4826994A, “Production of substituted 1,3,4,9-tetrahydropyrano(3,4-B)indole-1-acetic acids” (American Home Products Corporation, priority 1988, dated 1989).

Assay [1] is described as follows: Preventative Adjuvant Edema (acute anti-inflammatory effect in rats). The assay is classed as in vivo, Male Sprague Dawley rats. Particulars: for Preventative Adjuvant Edema, percent inhibition / inhibition in vivo at 25 mg/kg: 25 mg/kg, p.o.; for inhibition in vivo at 25 mg/kg: read-out: Preventative Adjuvant Edema, percent inhibition. Here is the method:
This test is a primary screen for anti-inflammatory drugs.
Male Sprague Dawley rats (180-200 g) are used. The animals have free access to water but food is withdrawn 18 hours before testing.
Drug Preparations and Administration:
Freund's complete adjuvant is prepared by suspending 5 mg of killed and dried Mycobacterium butyricum (Difco) in 1 mL mineral oil. The test compounds are dissolved, of suspended in 0.5% Tween 80 in distilled water according to their solubility. For primary screening all drugs are administered by gastric lavage at the arbitrary dosage of 25 mg/kg, p.o. in a volume of 0.5 mL/100 g body weight to groups of 10 animals.
The method is essentially that described by Wax et al, J. Pharmacol. Exp. Ther., 192, 166-171 (1975). Groups of rats are injected intradermally in the left hind paw with 0.1 mL of Freund's complete adjuvant. The test compound or vehicle is administered immediately before the adjuvant, 24 hours and 48 hours after the adjuvant (days 0, 1 and 2). The injected hind paw volume is measured before the injection of adjuvant and 24 hrs. after the last drug administration (day 3) by means of a plethysmometer (Buxco Electronics Inc.). The difference between the hind paw volume on day 0 and day 3 represents the edema volume. Etodolac (25 mg/kg, p.o.) is included as a positive control.
The mean edema volume (expressed as mL±SEM) is calculated for each group and the percentage protection conferred by the drug is calculated: [formula] where c is the mean edema volume for the vehicle-treated (0.5% Tween 80 in distilled water) controls and t is the mean edema volume for the drug treated group.

Assay [2] can be described thus: Drug Effects on Phenylbenzoquinone-induced Writhing in Mice. Format: in vivo, Male Swiss albino mice. The note with it: for inhibition in vivo at 25 mg/kg / ED50: Mus musculus, po; for inhibition in vivo at 25 mg/kg: read-out: Phenylquinone Writhing in Mice, percent inhibition; for ED50: value in parentheses, read-out: Phenylquinone Writhing in Mice, ED50. Here is the method: A further test used to determine the utility of the compounds of the present invention is designated: Drug Effects on Phenylbenzoquinone-induced Writhing in Mice
The objective of this test is to determine the ability of test drugs to inhibit the nociceptive (pain) response of mice injected with a chemical irritant. This test is a primary screen for both peripheral and centrally acting analgesic drugs.
Male Swiss albino mice (15-25 g). The animals are fasted for 18 hours prior to use but have free access to water.
Drug Preparation and Administration:
Drugs are dissolved or suspended according to their solubility in 0.5% Tween 80 in distilled water. They are administered by gastric gavage in a volume of 5 mL/kg. For primary screening all drugs are administered at the arbitrary dosage of 25 mg/kg, p.o. to a group of 10 mice.
A modification of the method of Siegmund et al, Proc. Soc. Exp. Biol. Med., 95, 729-731 (1957) is used. Groups of 5 mice are dosed with the test compound or vehicle control. Sixty minutes later the animals are injected i.p. with 0.3 mL/20 g body weight of a 0.02% solution of phenylbenzoquinone (PBQ; 2-phenyl-1,4-benzoquinone) and placed in individual observation boxes. The number of writhing or abdominal squirming movements made by each mouse during the following 15 min. period is counted. The experiment is repeated with another group of 5 mice and the mean number of writhes per mouse for a group of 10 mice is calculated.
Drug treated and vehicle-treated control groups are compared and the percentage protection conferred by the drug is calculated: [formula] where c=mean number of writhes in the control group where t=mean number of writhes in the test drug group
Background: An intraperitoneal irritant provokes the stretching counted in writhing tests.

Regarding `CCC1(CC(=O)O)OCC(Cc2ccccc2)c2c1[nH]c1c(C)c(Cl)ccc21` (single isomer, unassigned) [Example 20, 7-chloro-1-ethyl-1,3,4,9-tetrahydro-8-methyl-4-(phenylmethyl)-pyrano[3,4-b]indole-1-acetic acid], the “Preventative Adjuvant Edema, percent inhibition” value in assay [1] turned out to be 34%. Further, the inhibition in vivo at 25 mg/kg in assay [2] (25 mg/kg, p.o.) came to 11%.

In general, ED50 refers to the midpoint of the dose-response relation. With `CCC1(CC(=O)O)OCC(Cc2ccccc2)c2c1[nH]c1ccc(Br)cc21` (single isomer, unassigned) [Example 25, 6-bromo-1-ethyl-1,3,4,9-tetrahydro-4-(phenylmethyl)-pyrano[3,4-b]indole-1-acetic acid], the ED50 in assay [2] was 3.1 mg/kg. Consider `C=CCC1COC(CC)(CC(=O)O)c2[nH]c3ccccc3c21` (single isomer, unassigned) [Example 15], for which the “Preventative Adjuvant Edema, percent inhibition” value in assay [1] was determined as 30%. Moreover, the “Phenylquinone Writhing in Mice, percent inhibition” value in assay [2] (25 mg/kg, p.o.) was found to be 25%. Turning to `CCC1(CC(=O)O)OCC(Cc2ccccc2)c2c1[nH]c1ccc(Br)cc21` (single isomer, unassigned) [Example 26, 6-bromo-1-ethyl-1,3,4,9-tetrahydro-4-(phenylmethyl)-pyrano[3,4-b]indole-1-acetic acid], the inhibition in vivo at 25 mg/kg in assay [2] (25 mg/kg, p.o.) amounted to 10%. As to `CCC1(CC(=O)O)OCC(Cc2ccc(OC)cc2)c2c1[nH]c1ccccc21` (single isomer, unassigned) [Example 41], in assay [2] (25 mg/kg, p.o.), the inhibition in vivo at 25 mg/kg turned out to be 30%.

For the compound `CCC1(CC(=O)O)OCC(Cc2ccccc2)c2c1[nH]c1c(Cl)ccc(C)c21` (single isomer, unassigned) [Example 24, 8-chloro-1-ethyl-1,3,4,9-tetrahydro-5-methyl-4-(phenylmethyl)-pyrano[3,4-b]indole-1-acetic acid], the “Preventative Adjuvant Edema, percent inhibition” value in assay [1] amounted to 2%. In assay [2] (25 mg/kg, p.o.), the inhibition in vivo at 25 mg/kg worked out at 0%. Regarding `CCC1(CC(=O)O)OCC(Cc2ccc(Cl)cc2)c2c1[nH]c1ccccc21` (single isomer, unassigned) [Example 40], the inhibition in vivo at 25 mg/kg in assay [1] (Rattus norvegicus, po, 72 h) came to 60%; in assay [2] (25 mg/kg, p.o.), 47%.

Take `C=CCC1COC(CC)(CC(=O)O)c2[nH]c3c(C)c(F)ccc3c21` (single isomer, unassigned; isomer b) [Example 7, 1-Ethyl-7-fluoro-1,3,4,9-tetrahydro-8-methyl-4-(2-propenyl)pyrano[3,4-b]indole-1-acetic Acid (Isomer B)]: the inhibition in vivo at 25 mg/kg in assay [1] (Rattus norvegicus, po, 72 h) worked out at 37%; in assay [2] (25 mg/kg, p.o.), 15%. As to `CCC1(CC(=O)O)OCC(Cc2ccccc2)c2c1[nH]c1ccccc21` (single isomer, unassigned; isomer b) [Example 3, 1-Ethyl-1,3,4,9-tetrahydro-4-(phenylmethyl)-pyrano[3,4-b]indole-1-acetic Acid (Isomer B)], the inhibition in vivo at 25 mg/kg in assay [2] (25 mg/kg, p.o.) is 19%. As to `CCC1(CC(=O)O)OCC(Cc2ccccc2)c2c1[nH]c1c(Cl)ccc(C)c21` (single isomer, unassigned) [Example 23, 8-chloro-1-ethyl-1,3,4,9-tetrahydro-5-methyl-4-(phenylmethyl)-pyrano[3,4-b]indole-1-acetic acid], the “Preventative Adjuvant Edema, percent inhibition” value in assay [1] amounted to 0%. In assay [2], the ED50 was 1.4 mg/kg.

For `C=CCC1COC(CC)(CC(=O)O)c2[nH]c3ccccc3c21` (single isomer, unassigned) [Example 14], the inhibition in vivo at 25 mg/kg in assay [1] (Rattus norvegicus, po, 72 h) was 46%; in assay [2] (25 mg/kg, p.o.) it was 21%. On to `C=CCC1COC(CC)(CC(=O)O)c2[nH]c3c(CC)cccc3c21` (single isomer, unassigned) [Example 11, 1,8-diethyl-1,3,4,9-tetrahydro-4-(2-propenyl)-pyrano[3,4-b]indole-1-acetic acid], for which the inhibition in vivo at 25 mg/kg in assay [1] (Rattus norvegicus, po, 72 h) was 55%; in assay [2] (25 mg/kg, p.o.) it was 11%. As to `C=CCC1COC(CC)(CC(=O)O)c2[nH]c3ccc(F)cc3c21` (single isomer, unassigned) [Example 27], the inhibition in vivo at 25 mg/kg in assay [2] (25 mg/kg, p.o.) worked out at 24%. Take `C=CCC1COC(CC)(CC(=O)O)c2[nH]c3c(C)c(F)ccc3c21` (single isomer, unassigned; isomer a) [Example 6, 1-Ethyl-7-fluoro-1,3,4,9-tetrahydro-8-methyl-4-(2-propenyl)pyrano[3,4-b]indole-1-acetic Acid (Isomer A)]: the ED50 in assay [1] (Rattus norvegicus, po, 72 h, value in parentheses) worked out at 3.2 mg/kg; in assay [2] it was 18 mg/kg. Regarding `CCC1(CC(=O)O)OCC(Cc2ccccc2)c2c1[nH]c1c(C)ccc(Cl)c21` (single isomer, unassigned) [Example 29, 5-chloro-1-ethyl-1,3,4,9-tetrahydro-8-methyl-4-(phenylmethyl)-pyrano[3,4-b]indole-1-acetic acid], in assay [2], the ED50 came to 3.2 mg/kg.

Take `C=CCC1COC(CC)(CC(=O)O)c2[nH]c3c(C)c(Cl)ccc3c21` (single isomer, unassigned) [Example 17, 7-chloro-1-ethyl-1,3,4,9-tetrahydro-8-methyl-4-(2-propenyl)-pyrano[3,4-b]indole-1-acetic acid]: the inhibition in vivo at 25 mg/kg amounted to 44% in assay [1] (Rattus norvegicus, po, 72 h) and 11% in assay [2] (25 mg/kg, p.o.).

In the case of `CCC1(CC(=O)O)OCC(Cc2ccccc2)c2c1[nH]c1c(C)cccc21` (single isomer, unassigned) [Example 21, 1-ethyl-1,3,4,9-tetrahydro-8-methyl-4-(phenylmethyl)-pyrano[3,4-b]indole-1-acetic acid], the inhibition in vivo at 25 mg/kg in assay [1] (Rattus norvegicus, po, 72 h) turned out to be 40%; in assay [2] (25 mg/kg, p.o.), 11%. `CCC1(CC(=O)O)OCC(Cc2ccccc2)c2c1[nH]c1cc(Cl)ccc21` (single isomer, unassigned) [Example 34, 7-chloro-1-ethyl-1,3,4,9-tetrahydro-4-(phenylmethyl)-pyrano[3,4-b]indole-1-acetic acid]: in assay [2], the ED50 is 1.4 mg/kg. `C=CCC1COC(CC)(CC(=O)O)c2[nH]c3c(CCC)cccc3c21` (single isomer, unassigned) [Example 13, 1-ethyl-1,3,4,9-tetrahydro-4-(2-propenyl)-8-propyl-pyrano[3,4-b]indole-1-acetic acid]: the inhibition in vivo at 25 mg/kg in assay [1] (Rattus norvegicus, po, 72 h) came to 36%; in assay [2] (25 mg/kg, p.o.) it was 2%. As for `CCc1cccc2c3c([nH]c12)C(CC)(CC(=O)O)OCC3Cc1ccccc1` (single isomer, unassigned; isomer b) [Example 5, 1,8-Diethyl-1,3,4,9-tetrahydro-4-(phenylmethyl-pyrano[3,4-b]indole-1-aceticAcid (Isomer B)], in assay [1], the “Preventative Adjuvant Edema, percent inhibition” value worked out at 4%.
